Like-named read-outs stand apart in the source and are kept apart here.
Biological target: T1, menin (Homo sapiens, UniProt O00255, T541A)
T1 construct: Menin (a.a. 1-610-6×his tag)
T1 sequence (O00255 with tags, fused parts or gaps T541A): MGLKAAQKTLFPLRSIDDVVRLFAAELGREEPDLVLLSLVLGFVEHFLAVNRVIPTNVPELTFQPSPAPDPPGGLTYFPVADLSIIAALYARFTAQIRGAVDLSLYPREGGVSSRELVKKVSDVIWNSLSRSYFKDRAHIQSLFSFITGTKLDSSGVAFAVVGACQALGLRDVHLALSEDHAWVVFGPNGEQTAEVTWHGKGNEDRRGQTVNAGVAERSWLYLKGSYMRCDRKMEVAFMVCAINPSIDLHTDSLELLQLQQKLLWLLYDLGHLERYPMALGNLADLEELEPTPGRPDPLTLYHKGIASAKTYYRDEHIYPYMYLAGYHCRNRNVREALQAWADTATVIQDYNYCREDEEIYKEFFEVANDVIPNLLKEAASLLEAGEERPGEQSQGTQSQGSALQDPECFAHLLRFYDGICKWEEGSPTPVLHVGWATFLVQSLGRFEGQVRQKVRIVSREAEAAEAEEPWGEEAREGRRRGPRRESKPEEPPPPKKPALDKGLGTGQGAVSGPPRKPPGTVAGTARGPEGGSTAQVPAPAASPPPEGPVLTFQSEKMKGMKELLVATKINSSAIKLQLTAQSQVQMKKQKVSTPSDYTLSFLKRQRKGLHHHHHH
Experiment: Menin/MLL homogenous time-resolved fluorescence (HTRF) assay
Format: binding
Experimental: 2) Menin/MLL Homogenous Time-Resolved Fluorescence (HTRF) Assay
To an untreated, white 384-well microtiter plate was added 40 nL 200× test compound in DMSO and 4 μL 2× terbium chelate-labeled menin (vide infra for preparation) in assay buffer (40 mM Tris HCl, pH 7.5, 50 mM NaCl, 1 mM DTT and 0.05% Pluronic F-127). After incubation of test compound and terbium chelate-labeled menin for 5 min at ambient temperature, 4 μL 2× FITC-MBM1 peptide (FITC-β-alanine-[…]-NH2 (SEQ ID NO: 23)) in assay buffer was added, the microtiter plate centrifuged at 1000 rpm for 1 min and the assay mixtures incubated for 15 min at ambient temperature. The relative amount of menin.FITC-MBM1 complex present in an assay mixture is determined by measuring the homogenous time-resolved fluorescence (HTRF) of the terbium/FITC donor/acceptor fluorphore pair using a BMG Pherastar plate reader (ex. 337 nm/terbium em. 490 nm/FITC em. 520 nm) at ambient temperature. The degree of fluorescence resonance energy transfer (the HTRF value) is expressed as the ratio of the fluorescence emission intensities of the FITC and terbium fluorophores (Fern 520 nm/Fem 490 nm). The final concentrations of reagents in the binding assay are […] terbium chelate-labeled menin (location 2), 75 nM FITC-MBM1 peptide and 0.5% DMSO in assay buffer. Dose-response titrations of test compounds are conducted using an 11 point, three-fold serial dilution scheme, starting typically at 25 μM (location 1) or starting typically at 10 μM (location 2).
Compound potencies were determined by first calculating % inhibition at each compound concentration according to equation 1: % inhibition=((HC−LC)−(HTRF^compound−LC))/(HC−LC))*100 (Eqn 1)
Where LC and HC are the HTRF values of the assay in the presence or absence of a saturating concentration of a compound that competes with FITC-MBM1 for binding to menin, and HTRF^compound is the measured HTRF value in the presence of the test compound. FTC and LC HTRF values represent an average of at least 16 replicates per plate.
Where Bottom and Top are the lower and upper asymptotes of the dose-response curve, respectively, IC50 is the concentration of compound that yields 50% inhibition of signal and h is the Hill coefficient.
Preparation of Terbium cryptate labeling of Menin: Menin (a.a. 1-610-6×his tag (“6×his” disclosed as SEQ ID NO: 3)) was labeled with terbium cryptate as follows. 2 mg of Menin was buffer exchanged into 1× phosphate buffered saline. 16 uM Menin was incubated with 4-fold molar excess NHS-terbium cryptate (Cisbio Bioassays, Bedford, Mass.) for 2 hours at room temperature. The labeled protein was purified away from free label by running the reaction over a Superdex 200 Increase 10/300 GL column at 0.75 ml/min. Peak fractions were collected, aliquoted and frozen at −80° C.

[1] = location 2, read-out: (2) location 2 Menin HTRF assay (IC50 (nM))
[2] = location 1, read-out: (2) location 1 Menin HTRF assay (IC50 (nM))

SMILES	IC50 [1]	IC50 [2]
Cc1nc(N2CCC3(CC(NCc4ccccc4)C3)C2)c2cc(CC(F)(F)F)sc2n1 (single isomer, unassigned) [Compound 261]	529 nM	
O=C(c1cnc(NC2CC3(CCN(c4ncnc5sc(CC(F)(F)F)cc45)C3)C2)nc1)N1CCOCC1 (single isomer, unassigned) [Compound 259]	> 10000 nM	
CC(C)CN(C(=O)CCN1CCOCC1)C1CC2(CCN(c3ncnc4sc(CC(F)(F)F)cc34)C2)C1 (mixture of isomers) [Compound 52]		555 nM
COc1nc(N2CC3(CCC(NCc4ccc5[nH]c(=O)[nH]c5c4)C3)C2)c2cc(CC(F)(F)F)sc2n1 (centres unmarked) [Compound 117]	111 nM	
Cn1cc(NC2CC3(CCN(c4ncnc5sc(CC(F)(F)F)cc45)C3)C2)cn1 (mixture of isomers) [Compound 310]	> 10000 nM	
N#CCc1ccc(C(=O)NC2CC3(CCN(c4ncnc5sc(CC(F)(F)F)cc45)C3)C2)cc1 (single isomer, unassigned) [Compound 11]	3760 nM	
O=C(NC1CCC2(C1)CN(c1ncnc3sc(CC(F)(F)F)cc13)C2)c1cccc(-c2cc[nH]n2)c1 (centres unmarked) [Compound 30]	3890 nM	
FC(F)(F)Cc1cc2c(N3CC4(CCC(Nc5ccc6cc[nH]c6c5)C4)C3)ncnc2s1 (centres unmarked) [Compound 284]	423 nM	
N#CCc1cccc(S(=O)(=O)NC2CCC3(CCN(c4ncnc5sc(CC(F)(F)F)cc45)C3)C2)c1 (centres unmarked) [Compound 124]	2530 nM	
N#CCc1ccc(C(=O)NC2CCC3(CCN(c4ncnc5sc(CC(F)(F)F)cc45)C3)C2)cc1 (centres unmarked) [Compound 126]	> 10000 nM	
O=S(=O)(NC1CC2(CCN(c3ncnc4sc(CC(F)(F)F)cc34)C2)C1)c1ccc(C(F)(F)F)cc1 (mixture of isomers) [Compound 417]	221 nM	
N#CC1(c2ccc(NC3CC4(CCN(c5ncnc6sc(CC(F)(F)F)cc56)C4)C3)cc2)CC1 (single isomer, unassigned) [Compound 171]	265 nM	
FC(F)(F)Cc1cc2c(N3CCC4(CC(Nc5ccc(Cl)cc5)C4)C3)ncnc2s1 (mixture of isomers) [Compound 161]	101 nM	
CC(C)(N[C@@H]1CCC2(C1)CN(c1ncnc3sc(CC(F)(F)F)cc13)C2)c1ccccc1 (single isomer, unassigned) [Compound 280]	158 nM	
FC(F)(F)Cc1cc2c(N3CC4(CC[C@H](NC5(c6ccccc6)CC5)C4)C3)ncnc2s1 (stereo in doubt) [Compound 113]	164 nM	
CN(CC1CC2(CCN(c3ncnc4sc(CC(F)(F)F)cc34)C2)C1)c1cnn(C)c1 (mixture of isomers) [Compound 197]	2350 nM	
O=S(=O)(NC1CCC2(CCN(c3ncnc4sc(CC(F)(F)F)cc34)C2)C1)c1ccccc1 (centres unmarked) [Compound 39]	1440 nM	
N#CCc1cccc(C(=O)NC2CC3(CCN(c4ncnc5sc(CC(F)(F)F)cc45)C3)C2)c1 (centres unmarked) [Compound 8]	1010 nM	1250 nM
CNC(=O)c1ccc(NC2CC3(CCN(c4ncnc5sc(CC(F)(F)F)cc45)C3)C2)nc1 (single isomer, unassigned) [Compound 71]	433 nM	
FC(F)(F)Cc1cc2c(N3CCC4(CCC(Nc5ccccc5)C4)C3)ncnc2s1 (single isomer, unassigned) [Compound 32]	123 nM	

The next lines start with the values.

IC50 [1]	IC50 [2]	SMILES
113 nM		CNc1nc(N2CCC3(CC(Nc4ccc5[nH]c(=O)[nH]c5c4)C3)C2)c2cc(CC(F)(F)F)sc2n1 (single isomer, unassigned) [Compound 395]
316 nM		CS(=O)(=O)Nc1ccc(C(=O)NC2CC3(CCN(c4ncnc5sc(CC(F)(F)F)cc45)C3)C2)cc1 (single isomer, unassigned) [Compound 29]
115 nM		CNc1nc(N2CCC3(CC(NCc4ccccc4)C3)C2)c2cc(CC(F)(F)F)sc2n1 (single isomer, unassigned) [Compound 62]
1690 nM		Cn1c(=O)[nH]c2ccc(NC3CC4(CCN(c5ncnc6sc(CC(F)(F)F)cc56)C4)C3)cc21 (mixture of isomers) [Compound 325]
137 nM		CNC(=O)c1ccc(NC2CCC3(C2)CN(c2nc(NC)nc4sc(CC(F)(F)F)cc24)C3)cc1 (centres unmarked) [Compound 123]
200 nM		O=C(c1ccc(NC2CC3(CCN(c4ncnc5sc(CC(F)(F)F)cc45)C3)C2)cc1)N1CCNCC1 (single isomer, unassigned) [Compound 188]
84.6 nM		CNC(=O)c1ccc(NC2CC3(CCN(c4ncnc5sc(CC(F)(F)F)cc45)C3)C2)cc1F (single isomer, unassigned) [Compound 204]
98.1 nM		Cc1ccc(NC2CC3(CCN(c4ncnc5sc(CC(F)(F)F)cc45)C3)C2)cc1 (mixture of isomers) [Compound 167]
2900 nM		CS(=O)(=O)N1CCN(C(=O)c2ccc(NC3CC4(CCN(c5ncnc6sc(CC(F)(F)F)cc56)C4)C3)cc2)CC1 (single isomer, unassigned) [Compound 179]
133 nM		CNC(=O)c1ccc(NC2CC3(CCN(c4nc(NC)nc5sc(CC(F)(F)F)cc45)C3)C2)cc1 (single isomer, unassigned) [Compound 65]
118 nM		O=S(=O)(c1ccc(NC2CC3(CCN(c4ncnc5sc(CC(F)(F)F)cc45)C3)C2)cc1)N1CCOCC1 (single isomer, unassigned) [Compound 220]
348 nM		CNc1nc(N2CCC3(CC(Nc4ccc5oc(=O)n(CCN6CCN(S(C)(=O)=O)CC6)c5c4)C3)C2)c2cc(CC(F)(F)F)sc2n1 (mixture of isomers) [Compound 248]
297 nM		CN1CCN(C(=O)c2ccc(NC3CC4(CCN(c5ncnc6sc(CC(F)(F)F)cc56)C4)C3)cc2)CC1 (mixture of isomers) [Compound 336]
210 nM		Cn1cnc2ccc(NC3CC4(CCN(c5ncnc6sc(CC(F)(F)F)cc56)C4)C3)cc21 (mixture of isomers) [Compound 207]
166 nM		Cn1c(=O)[nH]c2cc(NC3CC4(CCN(c5ncnc6sc(CC(F)(F)F)cc56)C4)C3)ccc21 (single isomer, unassigned) [Compound 91]
518 nM		CS(=O)(=O)N1CCN(CCn2c(=O)oc3ccc(NC4CC5(CCN(c6ncnc7sc(CC(F)(F)F)cc67)C5)C4)cc32)CC1 (mixture of isomers) [Compound 270]
150 nM		FC(F)(F)Cc1cc2c(N3CCC4(CC(Nc5cccc(Cl)c5)C4)C3)ncnc2s1 (mixture of isomers) [Compound 160]
108 nM		CN1CCC(c2cc(NC3CC4(CCN(c5ncnc6sc(CC(F)(F)F)cc56)C4)C3)ccc2C(=O)N2CCOCC2)CC1 (single isomer, unassigned) [Compound 233]
3430 nM		COC1CCN(C(=O)c2ccc(NC3CC4(CCN(c5ncnc6sc(CC(F)(F)F)cc56)C4)C3)cc2)CC1 (single isomer, unassigned) [Compound 184]
118 nM		Fc1cccc(NC2CC3(CCN(c4ncnc5sc(CC(F)(F)F)cc45)C3)C2)c1 (mixture of isomers) [Compound 157]

Reference: patent US11396517B1, “Exo-aza spiro inhibitors of menin-MLL interaction” (Janssen Pharmaceutica NV, priority 2017, dated 2022)
